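In this assay, cells in 96-well plates receive the compound at five concentrations for 48 hours. Endpoints are linearly interpolated between the surrounding concentrations. Here, GI50 denotes the concentration required for 50% inhibition of growth.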 The source made the active and inactive calls. Rule as the data show it: active = GI50 up to about 1.1 µM and inactive = higher. Where only a bound is given, the exact number is not on record here.

The values that follow come from ChEMBL document CHEMBL1201862, “PubChem BioAssay data set” (2004).

Test systems include SW-620; HL-60; U-251; HCT-116; T47D; OVCAR-3; NCI-H226; SK-MEL-28; RPMI-8226; HCC 2998; NCI/ADR-RES; HOP-62; MOLT-4; SNB-75; CAKI-1; SK-MEL-5; NCI-H460; NCI-H522; SR.
Test in all cases: NCI-60 cell line screen, 48 h

With `N#Cc1c(SCc2ccccc2)nc(-c2ccccc2)[nH]c1=S`, the GI50 is 25.6 µM (inactive) in the assay on SW-620; 30.6 µM (inactive) in the assay with HL-60; 21.4 µM (inactive) in the assay on U-251; 23.7 µM (inactive) in the assay on HCT-116; 22.4 µM (inactive) in the assay on T47D; 18.5 µM (inactive) in the assay with OVCAR-3. Moreover, the GI50 in the assay on NCI-H226 was 26.5 µM (inactive); in the assay with SK-MEL-28, 22.3 µM (inactive); with RPMI-8226, 24.7 µM (inactive); with HCC 2998, 19.3 µM (inactive); in the assay on NCI/ADR-RES, 23.5 µM (inactive); with HOP-62, 19.8 µM (inactive). The GI50 with MOLT-4 was 29 µM (inactive); in the assay on SNB-75, 19.1 µM (inactive); in the assay with CAKI-1 it was 33.3 µM (inactive); in the assay on SK-MEL-5, 19.3 µM (inactive); in the assay on NCI-H460, 23.2 µM (inactive).
For `NC1CC(=O)c2cc(Cl)sc21` (stereo not drawn), the GI50 in the assay with SW-620, in the assay with HL-60, in the assay on U-251, in the assay on HCT-116, in the assay on NCI-H522 and in the assay on T47D was > 100 µM (inactive) throughout. Also, the GI50 in the assay on OVCAR-3, in the assay with NCI-H226, in the assay on SK-MEL-28, in the assay with NCI/ADR-RES, with HOP-62 and in the assay with SNB-75 was > 100 µM (inactive) each time. In addition, the GI50 in the assay with CAKI-1, in the assay with SK-MEL-5 and with NCI-H460 was > 100 µM (inactive) each time.
For `CNC(=O)CCNC(=O)CCC(=O)OC`, the GI50 with SW-620, in the assay with U-251, in the assay on HCT-116, in the assay with T47D, in the assay on OVCAR-3 and in the assay on SK-MEL-28 was > 100 µM (inactive) each time. The GI50 in the assay with NCI/ADR-RES, in the assay with HOP-62, in the assay on MOLT-4, with CAKI-1, in the assay with SK-MEL-5 and in the assay on NCI-H460 was > 100 µM (inactive) throughout.
Turning to `OC1=C2c3ccccc3NC2Oc2cc(F)ccc21` (stereo not drawn), the GI50 was 19.6 µM (inactive) in the assay on SW-620; 15.7 µM (inactive) in the assay on U-251; 14 µM (inactive) in the assay on HCT-116; 17.7 µM (inactive) in the assay on NCI-H522; 19.2 µM (inactive) with T47D; 11.9 µM (inactive) with OVCAR-3. The GI50 was 22.4 µM (inactive) in the assay with NCI-H226; 30.1 µM (inactive) in the assay on SK-MEL-28; 17.9 µM (inactive) in the assay on HCC 2998; 16.2 µM (inactive) in the assay with NCI/ADR-RES; 17.7 µM (inactive) in the assay with HOP-62; 13.6 µM (inactive) in the assay with MOLT-4. Besides, the GI50 in the assay with CAKI-1 was 19.5 µM (inactive); in the assay on SK-MEL-5, 15 µM (inactive); with NCI-H460, 18.5 µM (inactive).
Consider `CC1=C(C2=C(C)C(=O)C(=O)c3cc(C)ccc32)c2ccc(C)cc2C(=O)C1=O`, for which the GI50 in the assay with SW-620 was 0.255 µM (active); in the assay with HL-60, 0.0199 µM (active); with U-251, 0.226 µM (active); in the assay with HCT-116, 0.333 µM (active); with NCI-H522 it was 0.21 µM (active); in the assay on T47D, 0.249 µM (active). Besides, the GI50 in the assay with OVCAR-3 was 0.153 µM (active); in the assay on NCI-H226 it was 1.9 µM (inactive); in the assay with SK-MEL-28 it was 0.185 µM (active); in the assay with RPMI-8226, 0.333 µM (active); in the assay on HCC 2998, 0.155 µM (active); in the assay on NCI/ADR-RES it was 0.274 µM (active). For the same compound, the GI50 is 0.451 µM (active) with HOP-62; 0.287 µM (active) with MOLT-4; 0.236 µM (active) with SNB-75; 0.182 µM (active) with CAKI-1; 0.206 µM (active) in the assay with SK-MEL-5; 0.243 µM (active) in the assay on NCI-H460.
On to `CCC[C@H](C)C[C@H](C)C[C@H](C)/C=C(\C)[C@@H](O)[C@@H](C)C(=O)CC`, for which the GI50 with SW-620 is 20.3 µM (inactive); in the assay on HL-60 it was 17.9 µM (inactive); in the assay on U-251, 22.4 µM (inactive); in the assay on HCT-116, 17.5 µM (inactive); with NCI-H522 it was 17.6 µM (inactive); in the assay with T47D, 23.6 µM (inactive). Also, the GI50 was 19.7 µM (inactive) in the assay with OVCAR-3; 21 µM (inactive) with NCI-H226; 18.7 µM (inactive) in the assay with SK-MEL-28; 23.2 µM (inactive) in the assay on RPMI-8226; 17 µM (inactive) with HCC 2998; 17 µM (inactive) with NCI/ADR-RES. For the same compound, the GI50 is 20.4 µM (inactive) in the assay with HOP-62; 21.4 µM (inactive) in the assay with MOLT-4; 49.9 µM (inactive) in the assay on SNB-75; 22.4 µM (inactive) in the assay on CAKI-1; 18.9 µM (inactive) in the assay on SK-MEL-5; 24 µM (inactive) in the assay with NCI-H460.
Consider `Nc1nc(N)c(C2=CCN(Cc3ccccc3)CC2)c(=O)[nH]1`, for which the GI50 in the assay with SW-620, with HL-60, in the assay with U-251, with HCT-116, in the assay on NCI-H522 and in the assay on T47D was > 100 µM (inactive) each time. In addition, the GI50 with OVCAR-3, in the assay with NCI-H226, in the assay with SK-MEL-28, in the assay on RPMI-8226, in the assay with NCI/ADR-RES and in the assay on HOP-62 was > 100 µM (inactive) each time. Further, the GI50 with MOLT-4, in the assay on SNB-75, with CAKI-1, in the assay on SK-MEL-5 and in the assay with NCI-H460 was > 100 µM (inactive) each time.
In the case of `COc1ccc(P2(=S)Oc3ccccc3-c3ccccc3O2)cc1`, the GI50 in the assay on SW-620 is 0.423 µM (active); with HL-60, 0.284 µM (active); in the assay on U-251, 0.429 µM (active); with HCT-116, 0.524 µM (active); with NCI-H522, 0.193 µM (active); with T47D, 36.1 µM (inactive). Also, the GI50 in the assay on OVCAR-3 was 0.226 µM (active); with NCI-H226 it was 7.1 µM (inactive); in the assay with SK-MEL-28 it was > 67.1 µM (inactive); in the assay on HCC 2998, 0.443 µM (active); in the assay on NCI/ADR-RES it was 0.902 µM (active); in the assay on HOP-62, 0.44 µM (active). For the same compound, the GI50 in the assay with MOLT-4 is 0.437 µM (active); in the assay on SNB-75, 0.337 µM (active); in the assay on CAKI-1, 0.271 µM (active); in the assay with SK-MEL-5, 0.365 µM (active); in the assay on NCI-H460, 0.35 µM (active).
As to `O=CCC1CCCCC1`, the GI50 in the assay on SW-620, in the assay on HCT-116, in the assay on NCI-H522, in the assay with T47D, with OVCAR-3 and in the assay with NCI-H226 was > 100 µM (inactive) each time. The GI50 with SK-MEL-28, with RPMI-8226, in the assay with NCI/ADR-RES, in the assay with HOP-62, with MOLT-4 and in the assay with SNB-75 was > 100 µM (inactive) in each case. The GI50 in the assay on CAKI-1, with SK-MEL-5 and with NCI-H460 was > 100 µM (inactive) each time.
For the compound `CN(C)C1(N(C)C)Oc2c(c(=O)n(C)c(=O)n2C)C(c2ccc(F)cc2)C1(F)F` (stereo not drawn), the GI50 in the assay with SW-620, in the assay on U-251, with HCT-116, with T47D, with OVCAR-3 and in the assay on NCI-H226 was > 100 µM (inactive) in each case. In addition, the GI50 in the assay with SK-MEL-28, in the assay on RPMI-8226, with HCC 2998, with NCI/ADR-RES, in the assay on HOP-62 and in the assay with SNB-75 was > 100 µM (inactive) each time. Besides, the GI50 in the assay on CAKI-1, in the assay on SK-MEL-5 and in the assay on NCI-H460 was > 100 µM (inactive) throughout.
In the case of `CC1=C(C)C(=O)C(C2=C(C3=CC(=O)C(C)=C(C)C3=O)C(=O)C(C)=C(C)C2=O)=CC1=O`, the GI50 with SW-620 was 3.32 µM (inactive); in the assay on HL-60 it was > 100 µM (inactive); in the assay on U-251, 3.68 µM (inactive); with HCT-116, 5.45 µM (inactive); with NCI-H522, 1.95 µM (inactive); in the assay with T47D, 2.75 µM (inactive). Moreover, the GI50 in the assay with NCI-H226 is 11 µM (inactive); in the assay with SK-MEL-28, 6.87 µM (inactive); in the assay on HCC 2998, 15.2 µM (inactive); in the assay with NCI/ADR-RES, 1.13 µM (inactive); with HOP-62, 18.7 µM (inactive); in the assay with MOLT-4, 0.697 µM (active). In addition, the GI50 in the assay on SNB-75 was 16.6 µM (inactive); in the assay on CAKI-1, 3.44 µM (inactive); in the assay with SK-MEL-5, 2.15 µM (inactive); in the assay on NCI-H460, 14.9 µM (inactive).
Consider `COc1cc2cc[n+](C)c(Cc3ccc(Oc4cc(Cc5c6cc(OC)c(OC)cc6cc[n+]5C)ccc4OC)cc3)c2cc1OC`, for which the GI50 in the assay on SW-620 is > 100 µM (inactive); with HL-60, 45.2 µM (inactive); with U-251, > 100 µM (inactive); in the assay with HCT-116, > 100 µM (inactive); in the assay on NCI-H522, > 100 µM (inactive); with T47D, > 100 µM (inactive). The GI50 in the assay on OVCAR-3, in the assay with SR, in the assay on NCI-H226, in the assay with SK-MEL-28, in the assay with RPMI-8226 and with HCC 2998 was > 100 µM (inactive) in each case. The GI50 was > 100 µM (inactive) in the assay with HOP-62; 60.1 µM (inactive) with MOLT-4; > 100 µM (inactive) with SNB-75; > 100 µM (inactive) with CAKI-1; > 100 µM (inactive) with SK-MEL-5; > 100 µM (inactive) in the assay on NCI-H460.
